According to ChEMBL document CHEMBL3301546, “MMV Malaria Box yeast growth screening”:

Tests used:
Assay type in all cases: functional
[1] = system: Saccharomyces cerevisiae; assay: (§1) MMV: Growth assays were conducted using the prototrophic S. cerevisiae strain JHY222. Each MMV compound (0.1 mM) was tested in minimal media containing dextrose as a carbon source (Yeast Nitrogen Base, Dextrose; YNBD). The growth rate in the presence of each MMV compound was calculated as follows: (i) the first 10 OD readings were averaged and subtracted from all OD readings of the corresponding curve to set the baseline of the growth curve to zero, and (ii) the area under the curve (AUC) was then calculated as the sum of all OD readings. […] A relative growth value was calculated as follows: AUC(DRUG) - AUC(DMSO)/AUC(DMSO); where AUC(DMSO) represents growth measured in a DMSO control well that was on the same microtiter plate of the drug-treated culture.
[2] = system: Saccharomyces cerevisiae; assay: as §1, with “rich” for “minimal”, “Extract, Peptone,” for “Nitrogen Base,”, “YPD).” for “YNBD).”
[3] = system: Saccharomyces cerevisiae; assay: as §1, with “ethanol and glycerol” for “dextrose”, “as” for “as a”, “sources” for “source”, “Ethanol, Glycerol; YNBEG).” for “Dextrose; YNBD).”

Row | Compound | Relative Growth [1] | Relative Growth [2] | Relative Growth [3]
1 | c1ccc(/C2=N/c3ccccc3/N=C(/c3ccccc3)c3ccccc32)cc1 | -0.0429 | -0.0437 | -0.1082
2 | Oc1ccccc1CN1CCC2(CCCN(Cc3ccccc3F)C2)C1 (centres undefined) | -0.0494 | -0.0746 | -0.309
3 | CCOC(=O)C1=C(C)N=c2sc(=Cc3ccccc3O)c(=O)n2C1c1ccc(OC)c2ccccc12 (centres undefined) | 0.0217 | -0.9923 | 0.0525
4 | Cc1ccc(-c2cc(C(=O)Nc3ccc(S(=O)(=O)N4CCCCC4)cc3)[nH]n2)c(O)c1 | -0.0309 | -0.07 | -0.0163
5 | CCOC(=O)C1=C(C)N=c2sc(=Cc3cc(Cl)ccc3O)c(=O)n2C1c1ccc(OC)cc1 (centres undefined) | 0.1077 | -0.1268 | 0.0816
6 | FC(F)(F)c1cccc(Nc2nc3ccccc3nc2Nc2cccc(C(F)(F)F)c2)c1 | -0.0009 | -0.0449 | -0.1177
7 | c1ccc(-c2ccc(-c3nc4ccccc4[nH]3)cc2)cc1 | -0.0469 | -0.0154 | 0.0562
8 | COc1ccc(CN2CCCC(C(=O)c3ccc(C(F)(F)F)cc3)C2)c(O)c1 (centres undefined) | -0.4404 | -0.2476 | -0.9168
9 | COc1cccc(NC(=O)Cn2c(C)c(C#N)c3ccccc32)c1 | -1.0078 | -0.9399 | -1.0064
10 | Cn1c(=O)c2cc(C(=O)NCCCN3CCCCCC3)sc2c2ccccc21 | -0.1099 | -0.0314 | 0.0018
11 | O=C(NC1CCCCC1)C(c1cccs1)N(CCc1ccccc1)C(=O)c1ccco1 (centres undefined) | -0.1735 | -0.0109 | -0.2518
12 | COc1ccc(C(=O)NC(c2ccc(Cl)cc2Cl)c2cc(Cl)c3cccnc3c2O)cc1 (centres undefined) | -0.2517 | 0.0373 | -0.3135
13 | Cc1ccnc(NC(c2cccc(OCc3ccccc3)c2)c2ccc3cccnc3c2O)c1 (centres undefined) | 0.0892 | 0 | -0.3469
14 | Nc1ccc(-c2nc3cc(Cc4ccc5[nH]c(-c6ccc(N)cc6)nc5c4)ccc3[nH]2)cc1 | -0.0312 | -0.9832 | -0.1364
15 | COc1ccc(CNC2CCN(c3ccc(NC(=O)c4cccc(Cl)c4)cc3)CC2)cc1OC | 0.0343 | -0.0405 | -0.0282
16 | N=c1c2ccccc2nnn1-c1cccc(C(F)(F)F)c1 | -0.1559 | -0.0528 | -0.1336
17 | COc1cc(-c2nc(-c3ccc(Sc4ccccc4)cc3)c(-c3ccccc3)[nH]2)cc(OC)c1O | -0.0129 | -0.0314 | -0.2127
18 | O=c1cc(NC2CCN(CCCc3ccccc3)CC2)c2cc(Cl)ccc2o1 | 0.014 | -0.0193 | 0.0246
19 | FC(F)(F)c1cccc(CNC2CCN(CCc3ccccc3)CC2)c1 | -0.0056 | -0.0003 | -0.3142
20 | COc1ccc(C2NCCc3c2[nH]c2ccccc32)cc1CN1CCN(c2ccc(F)cc2)CC1.Cl (centres undefined) | 0.0397 | -0.0229 | -0.0259
21 | O=C(Nc1ccc(Cl)cc1)N1CCN(c2ccc3nncn3n2)CC1 | -0.0344 | 0.0021 | 0.053
22 | COc1ccc(C2C(C(=O)Nc3cccc(OC)c3)c3ccccc3C(=O)N2C2CCCCC2)cc1 (centres undefined) | 0.0321 | -0.0663 | -0.1595
23 | CCN(CC)c1ccc(NC(=O)c2cccs2)cc1 | -0.1938 | -0.0445 | -0.4168
24 | CCOC(=O)c1cnc2ccc(Cl)cc2c1NCCCN(C)C | 0.0022 | 0.0203 | -0.0264
25 | CCCCNCC(O)(c1ccc(Cl)cc1)c1ccc(Cl)cc1 | -0.2198 | 0.0298 | -0.1782
26 | c1ccc2c(NCCc3c[nH]c4ccccc34)c3ccccc3nc2c1 | -0.0449 | -0.7261 | -0.0957
27 | CCCC(c1nnnn1C1CCCCC1)N1CCN(C(=O)c2ccco2)CC1.Cl (centres undefined) | 0.0714 | -0.0604 | 0.0167

Row | Compound | Relative Growth [1] | Relative Growth [2] | Relative Growth [3]
28 | O=C1c2ccccc2C2=Nc3ccccc3SC(c3cccc(F)c3)C12 (centres undefined) | -0.0716 | 0.0574 | -0.2808
29 | CCOC(=O)c1cnc2c(C)cccc2c1Nc1ccc(C(C)=O)cc1 | -0.0028 | -0.0046 | -0.0453
30 | COc1ccc(-c2nonc2NC(=O)c2cccc(C)c2)cc1OC | 0.0614 | -0.0571 | -0.0764
31 | Cc1ccc(-c2nc3ccccc3o2)cc1NCc1cc(Cc2ccccc2)ccc1O | 0.0201 | -0.0705 | -0.1416
32 | Cc1ccc(C2CC(C(F)(F)F)n3nc(C(=O)N4CCN(C(c5ccccc5)c5ccccc5)CC4)cc3N2)cc1 (centres undefined) | -0.1134 | 0.0315 | -0.019
33 | COc1ccccc1CNC(=O)C1c2ccccc2C(=O)N(CC(C)C)C1c1cccs1 (centres undefined) | -0.0764 | -0.1327 | -0.0424
34 | COc1ccc(C(O)(CCC(C)C)C(CN2CCOCC2)c2ccc(Cl)cc2)cc1.Cl (centres undefined) | -0.0398 | -0.0809 | -0.1228
35 | COc1ccc(-c2cc(=O)oc3c4c(ccc23)OCN(Cc2ccc(F)cc2)C4)cc1 | 0.0043 | 0.0536 | -0.013
36 | Oc1ccc(C(=C(Cl)Cl)c2ccc(O)cc2)cc1 | -0.227 | 0.0294 | -0.5689
37 | CCCCC(O)(c1ccc(Cl)cc1)C(CN1CCOCC1)c1ccc(Cl)cc1.Cl (centres undefined) | -0.1088 | 0.0402 | -0.0844
38 | COc1ccc(OC)c(C2C3=C(CC(C)(C)CC3=O)N(c3ccc(Cl)c(Cl)c3)C3=C2C(=O)CC(C)(C)C3)c1 | -0.0153 | -0.0143 | -0.1129
39 | COc1ccc(C(=O)NC(c2ccccc2Cl)c2cc(Cl)c3cccnc3c2O)cc1 (centres undefined) | -1.0012 | -0.3676 | -1.0144
40 | Cc1cccc(N2C(=O)C3C(C2=O)C2(c4ccccc4)C(=O)C3(c3ccccc3)C(c3ccc4c(c3)OCO4)=C2c2ccc3c(c2)OCO3)c1 (centres undefined) | -0.0077 | -0.0089 | -0.1627
41 | CCCc1c(C)nc2ccc(Br)cc2c1O | -0.0231 | 0.0054 | -0.1859
42 | COc1ccc(CCNC(=O)c2cc(S(=O)(=O)N3CC(C)CC(C)C3)ccc2Sc2ccc(F)cc2)cc1OC (centres undefined) | -0.1001 | -0.1625 | -0.0984
43 | Cc1ccc(F)cc1NC(=O)c1cc(Cl)ccc1Nc1ccccc1 | -0.0972 | -0.0355 | 0.1227
44 | CCCc1c(C)nc2ccccc2c1O | -0.1078 | -0.0347 | -0.1372
45 | CC1=C(CC(=O)c2cccc([N+](=O)[O-])c2)C(=O)c2ccccc2C1=O | -1.0109 | -0.9318 | -1.022
46 | OC1CCCCC1C1(NC(=S)Nc2ccccc2)CCCCC1 (centres undefined) | -0.1203 | 0.0255 | 0.0032
47 | CCCCCCC(O)(c1ccc(F)cc1)C(CN1CCOCC1)c1ccccc1.Cl (centres undefined) | -0.1565 | -0.0019 | -0.0435
48 | COc1cc(OC)cc(N2C(=O)N(Cc3ccc(C(C)(C)C)cc3)c3ccccc3S2(=O)=O)c1 | 0.0008 | -0.7249 | -0.0128
49 | CCOc1c(Br)cc(C2C(C(=O)OC)=CN(C)C=C2C(=O)OC)cc1OC | 0.0663 | -0.0344 | -0.0572
50 | COc1ccc(C(=O)C2CC2c2ccc(Cl)cc2)cc1 (centres undefined) | -0.0877 | -0.0484 | -0.181
51 | CCCCCn1c(=N)n(CC(O)COc2cccc(C)c2)c2ccccc21.Cl (centres undefined) | -0.2633 | 0.0144 | -0.7976
52 | CCN(CC)CCCNc1nc(-c2ccc(Cl)cc2)nc2ccccc12 | 0.0809 | -0.029 | -0.0397
53 | COc1ccccc1N1C(=N)SC(=Cc2ccc(OCc3ccccc3F)cc2)C1=O | 0.0037 | 0.0323 | -0.0753
